Source: PMC2955773 (ACS chemical biology, 2010)

How the values were obtained:
Assay type in all cases: cell-based
Nox3 = biological target: T1, Nox3 (Homo sapiens, UniProt Q9HBY0); experiment: HEK293-Nox3 selectivity assay
T1 sequence (Q9HBY0 1-568): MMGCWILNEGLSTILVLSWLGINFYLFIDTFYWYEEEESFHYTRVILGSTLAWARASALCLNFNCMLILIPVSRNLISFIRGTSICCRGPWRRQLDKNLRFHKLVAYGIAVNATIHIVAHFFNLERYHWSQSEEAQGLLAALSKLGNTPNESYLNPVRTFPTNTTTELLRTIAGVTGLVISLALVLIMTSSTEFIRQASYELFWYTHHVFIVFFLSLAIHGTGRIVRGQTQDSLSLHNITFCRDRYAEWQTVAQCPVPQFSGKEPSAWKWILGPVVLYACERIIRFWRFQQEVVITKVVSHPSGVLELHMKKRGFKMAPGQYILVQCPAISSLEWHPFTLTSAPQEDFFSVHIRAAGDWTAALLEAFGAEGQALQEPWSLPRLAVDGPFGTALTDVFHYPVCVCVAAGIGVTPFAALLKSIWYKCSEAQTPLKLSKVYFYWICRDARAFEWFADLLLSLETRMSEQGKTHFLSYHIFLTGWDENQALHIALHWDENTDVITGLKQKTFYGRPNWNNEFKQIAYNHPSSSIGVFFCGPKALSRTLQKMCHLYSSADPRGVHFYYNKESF
T1 sequence (P13498 2-195 partner limits assumed): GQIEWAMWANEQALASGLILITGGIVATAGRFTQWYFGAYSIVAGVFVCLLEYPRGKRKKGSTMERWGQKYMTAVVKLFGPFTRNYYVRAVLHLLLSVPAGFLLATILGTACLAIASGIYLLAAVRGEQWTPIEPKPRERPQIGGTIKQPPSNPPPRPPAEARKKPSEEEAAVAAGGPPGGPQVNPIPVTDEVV

HT29 cells = experiment: CellTiter Glo toxicity assay; details: 10 μM in HT29 cells
Nox2 = biological target: T2, Nox2 (Homo sapiens, UniProt P04839); experiment: HEK293-Nox2 selectivity assay
T2 sequence (P04839 2-570 limits assumed): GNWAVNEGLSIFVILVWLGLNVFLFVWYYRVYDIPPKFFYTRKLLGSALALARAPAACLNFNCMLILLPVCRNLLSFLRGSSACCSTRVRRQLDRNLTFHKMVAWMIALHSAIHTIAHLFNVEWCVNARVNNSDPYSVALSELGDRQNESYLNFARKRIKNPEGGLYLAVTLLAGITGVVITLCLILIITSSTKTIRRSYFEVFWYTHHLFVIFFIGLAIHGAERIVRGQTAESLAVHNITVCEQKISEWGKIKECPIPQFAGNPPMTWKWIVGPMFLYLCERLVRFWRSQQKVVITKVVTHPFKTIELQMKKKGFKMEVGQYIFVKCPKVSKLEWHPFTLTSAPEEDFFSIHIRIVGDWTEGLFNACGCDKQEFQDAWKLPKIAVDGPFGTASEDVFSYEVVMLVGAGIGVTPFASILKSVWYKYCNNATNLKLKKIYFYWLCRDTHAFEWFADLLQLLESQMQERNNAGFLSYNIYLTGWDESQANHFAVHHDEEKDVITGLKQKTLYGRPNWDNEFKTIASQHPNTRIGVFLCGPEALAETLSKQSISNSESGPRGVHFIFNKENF
T2 sequence (P13498 2-195 partner limits assumed): T1 sequence (P13498 2-195 partner limits assumed)

Nox4 = biological target: T3, Nox4 (Homo sapiens, UniProt Q9NPH5); experiment: HEK293-Nox4 selectivity assay
T3 sequence (Q9NPH5 1-578): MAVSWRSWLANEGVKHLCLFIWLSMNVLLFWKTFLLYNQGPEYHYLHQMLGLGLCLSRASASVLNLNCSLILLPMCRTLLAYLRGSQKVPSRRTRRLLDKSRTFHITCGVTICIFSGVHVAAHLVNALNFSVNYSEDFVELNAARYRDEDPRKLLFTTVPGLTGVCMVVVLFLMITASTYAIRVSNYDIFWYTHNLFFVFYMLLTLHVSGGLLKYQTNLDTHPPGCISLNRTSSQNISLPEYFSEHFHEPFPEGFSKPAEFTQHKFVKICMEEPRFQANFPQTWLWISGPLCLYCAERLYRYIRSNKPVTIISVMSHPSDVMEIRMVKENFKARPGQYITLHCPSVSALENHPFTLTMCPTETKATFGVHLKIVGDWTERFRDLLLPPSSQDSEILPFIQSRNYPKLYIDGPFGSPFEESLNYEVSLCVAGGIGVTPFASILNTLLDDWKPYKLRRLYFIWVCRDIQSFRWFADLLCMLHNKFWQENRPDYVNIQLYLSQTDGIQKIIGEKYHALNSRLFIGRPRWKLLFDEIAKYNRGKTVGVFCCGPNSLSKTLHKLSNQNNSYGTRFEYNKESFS
T3 sequence (P13498 2-195 partner limits assumed): T1 sequence (P13498 2-195 partner limits assumed)

## FC(F)(F)c1ccc2c(c1)Nc1ccccc1S2
Nox3
  activity on other Nox isoforms: only a marginal activity
HT29 cells
  cell death: did not cause cell death
Nox2
  activity on other Nox isoforms: only a marginal activity
Nox4
  activity on other Nox isoforms: only a marginal activity
